Results as given in US8883782B2, “Spiro-tetracyclic ring compounds as beta-secretase modulators and methods of use” (Amgen Inc., priority 2010, dated 2014).

Key:
[1] = target: Beta Secretase enzyme (BACE) (Homo sapiens, UniProt P56817); experiment: In vitro enzymatic BACE FRET (fluorescence resonance energy transfer) assay; type: biochemical; settings: average IC50, enzyme assay; read-out: BACE 1 FRET assay
Summary of the method: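 Cleavage of a 50 nM fluorophore/quencher peptide FRET substrate by BACE for 1 h in 0.05 M acetate pH 4.2, 10% DMSO, 100 uM genapol. Reaction stopped with Tris to neutral pH before fluorescence reading.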

[2] = test system: Aβ40 in conditioned medium of cells stably expressing Amyloid Precursor Protein (APP); experiment: In vitro BACE cell-based assay (Aβ40 in conditioned medium, sandwich ELISA); settings: Homo sapiens, HEK293, average IC50; read-out: HEK cell assay
Summary of the method: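 The sandwich ELISA pairs pAb40 capture (3 h, 4 °C) with 6E10 detection (2 h, 4 °C) and a streptavidin-europium TRF read-out. Supernatants come from APP-expressing cells grown in 10% FBS DMEM.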

Chain of Beta Secretase enzyme (BACE) (P56817 46-501, species assumed): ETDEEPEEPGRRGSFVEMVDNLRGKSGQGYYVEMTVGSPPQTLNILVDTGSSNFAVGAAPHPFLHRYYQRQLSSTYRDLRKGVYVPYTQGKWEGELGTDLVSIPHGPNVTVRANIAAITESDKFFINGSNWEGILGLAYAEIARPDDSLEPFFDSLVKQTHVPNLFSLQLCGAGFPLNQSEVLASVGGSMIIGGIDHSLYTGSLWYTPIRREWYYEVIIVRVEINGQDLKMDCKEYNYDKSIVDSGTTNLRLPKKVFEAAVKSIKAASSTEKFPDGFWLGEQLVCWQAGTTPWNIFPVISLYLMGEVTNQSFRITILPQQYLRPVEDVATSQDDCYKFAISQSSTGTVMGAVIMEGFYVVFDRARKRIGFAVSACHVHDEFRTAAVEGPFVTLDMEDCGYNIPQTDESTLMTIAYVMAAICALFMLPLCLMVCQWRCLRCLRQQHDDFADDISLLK

| IC50 [1] [µM] | IC50 [2] [µM] | Compound |
| --- | --- | --- |
| 0.0173 | 0.108 | COc1ncccc1-c1ccc2c(c1)[C@@]1(COC(N)=N1)c1cc(C3=CCOCC3)ncc1O2 [Example 240, (5S)-3-(3,6-dihydro-2H-pyran-4-yl)-7-(2-methoxy-3-pyridinyl)spiro[chromeno[2,3-c]pyridine-5,4′-[1,3]oxazol]-2′-amine] |
| 0.0034 | 0.0629 | NC1=N[C@@]2(CO1)c1cc(-c3cccc(Cl)c3)ccc1Oc1cnc(C3CCOCC3)cc12 [Example 241, (5S)-7-(3-chlorophenyl)-3-(tetrahydro-2H-pyran-4-yl)spiro[chromeno[2,3-c]pyridine-5,4′-[1,3]oxazol]-2′-amine] |
| 0.0031 | 0.0211 | NC1=N[C@@]2(CO1)c1cc(-c3cncc(Cl)c3)ccc1Oc1cnc(C3CCOCC3)cc12 [Example 242, (5S)-7-(5-chloro-3-pyridinyl)-3-(tetrahydro-2H-pyran-4-yl)spiro[chromeno[2,3-c]pyridine-5,4′-[1,3]oxazol]-2′-amine] |
| 0.0195 | 0.287 | Cn1cc(-c2cccc(-c3ccc4c(c3)[C@@]3(COC(N)=N3)c3cc(C5=CCOCC5)ncc3O4)c2)cn1 [Example 243, (5S)-3-(3,6-dihydro-2H-pyran-4-yl)-7-(3-(1-methyl-1H-pyrazol-4-yl)phenyl)spiro[chromeno[2,3-c]pyridine-5,4′-[1,3]oxazol]-2′-amine] |
| 0.0537 | 0.326 | CCn1cc(-c2cccc(-c3ccc4c(c3)[C@@]3(COC(N)=N3)c3cc(C5=CCOCC5)ncc3O4)c2)cn1 [Example 244, (5S)-3-(3,6-dihydro-2H-pyran-4-yl)-7-(3-(1-ethyl-1H-pyrazol-4-yl)phenyl)spiro[chromeno[2,3-c]pyridine-5,4′-[1,3]oxazol]-2′-amine] |
| 0.023 | 0.529 | Cc1noc(C)c1-c1cccc(-c2ccc3c(c2)[C@@]2(COC(N)=N2)c2cc(C4=CCOCC4)ncc2O3)c1 [Example 245, (5S)-3-(3,6-dihydro-2H-pyran-4-yl)-7-(3-(3,5-dimethyl-4-isoxazolyl)phenyl)spiro[chromeno[2,3-c]pyridine-5,4′-[1,3]oxazol]-2′-amine] |
| 0.0542 | 0.291 | Cc1cnccc1-c1cc2c(cn1)Oc1ccc(-c3cccnc3F)cc1[C@@]21COC(N)=N1 [Example 246, (5S)-7-(2-fluoro-3-pyridinyl)-3-(3-methyl-4-pyridinyl)spiro[chromeno[2,3-c]pyridine-5,4′-[1,3]oxazol]-2′-amine] |
| 0.0449 | 0.0455 | Cc1ncccc1-c1ccc2c(c1)[C@@]1(COC(N)=N1)c1cc(C3=CCOCC3)ncc1O2 [Example 247, (5S)-3-(3,6-dihydro-2H-pyran-4-yl)-7-(2-methyl-3-pyridinyl)spiro[chromeno[2,3-c]pyridine-5,4′-[1,3]oxazol]-2′-amine] |
| 0.0991 | 0.191 | Cc1ncccc1-c1ccc2c(c1)[C@@]1(COC(N)=N1)c1cc(-c3ccnc(F)c3)ncc1O2 [Example 248, (5S)-3-(2-fluoro-4-pyridinyl)-7-(2-methyl-3-pyridinyl)spiro[chromeno[2,3-c]pyridine-5,4′-[1,3]oxazol]-2′-amine] |
| 0.0268 | 0.271 | Cc1nc(F)ccc1-c1ccc2c(c1)[C@@]1(COC(N)=N1)c1cc(C3=CCOCC3)ncc1O2 [Example 251, (5S)-3-(3,6-dihydro-2H-pyran-4-yl)-7-(6-fluoro-2-methyl-3-pyridinyl)spiro[chromeno[2,3-c]pyridine-5,4′-[1,3]oxazol]-2′-amine] |
| 0.0661 | 0.548 | Cc1nc(F)ccc1-c1ccc2c(c1)[C@@]1(COC(N)=N1)c1cc(-c3ccnc(F)c3)ncc1O2 [Example 252, (5S)-7-(6-fluoro-2-methyl-3-pyridinyl)-3-(2-fluoro-4-pyridinyl)spiro[chromeno[2,3-c]pyridine-5,4′-[1,3]oxazol]-2′-amine] |
| 0.036 | 0.32 | Cc1ccc(-c2ccc3c(c2)[C@@]2(COC(N)=N2)c2cc(C4=CCOCC4)ncc2O3)c(F)n1 [Example 253, (5S)-3-(3,6-dihydro-2H-pyran-4-yl)-7-(2-fluoro-6-methyl-3-pyridinyl)spiro[chromeno[2,3-c]pyridine-5,4′-[1,3]oxazol]-2′-amine] |
| 0.0545 | 1.07 | Cc1ccc(-c2ccc3c(c2)[C@@]2(COC(N)=N2)c2cc(-c4ccnc(F)c4)ncc2O3)c(F)n1 [Example 254, (5S)-7-(2-fluoro-6-methyl-3-pyridinyl)-3-(2-fluoro-4-pyridinyl)spiro[chromeno[2,3-c]pyridine-5,4′-[1,3]oxazol]-2′-amine] |
| 0.0223 | 0.565 | Cc1nn(C)cc1-c1cccc(-c2ccc3c(c2)[C@@]2(COC(N)=N2)c2cc(C4=CCOCC4)ncc2O3)c1 [Example 255, (5S)-3-(3,6-dihydro-2H-pyran-4-yl)-7-(3-(1,3-dimethyl-1H-pyrazol-4-yl)phenyl)spiro[chromeno[2,3-c]pyridine-5,4′-[1,3]oxazol]-2′-amine] |
| 0.001 | 0.0063 | CC(C)(C#N)COc1cc(F)c2c(c1)[C@]1(COC(N)=N1)c1cc(-c3cccnc3)ccc1O2 [Example 257, 3-(((4S)-2-amino-4′-fluoro-7′-(3-pyridinyl)spiro[1,3-oxazole-4,9′-xanthen]-2′-yl)oxy)-2,2-dimethylpropanenitrile] |
| 0.006 | 0.0304 | NC1=N[C@@]2(CO1)c1cc(-c3ccc(F)nc3)ccc1Oc1c(F)cc(OCC3CCOCC3)cc12 [Example 258, (4S)-4′-fluoro-7′-(6-fluoro-3-pyridinyl)-2′-(tetrahydro-2H-pyran-4-ylmethoxy)spiro[1,3-oxazole-4,9′-xanthen]-2-amine] |
| 0.0027 | 0.0198 | CC(C)(F)COc1cc(F)c2c(c1)[C@]1(COC(N)=N1)c1cc(-c3ccc(F)nc3)ccc1O2 [Example 259, (4S)-4′-fluoro-2′-(2-fluoro-2-methylpropoxy)-7′-(6-fluoro-3-pyridinyl)spiro[1,3-oxazole-4,9′-xanthen]-2-amine] |
| 0.0019 | 0.0109 | NC1=N[C@@]2(CO1)c1cc(-c3ccc(F)nc3)ccc1Oc1c(F)cc(C3=CCOCC3)cc12 [Example 260, (4S)-2′-(3,6-dihydro-2H-pyran-4-yl)-4′-fluoro-7′-(6-fluoro-3-pyridinyl)spiro[1,3-oxazole-4,9′-xanthen]-2-amine] |
| 0.0068 | 0.0718 | NC1=N[C@@]2(CO1)c1cc(-c3ccc(F)nc3)ccc1Oc1c(F)cc(OC[C@H]3CC3(F)F)cc12 [Example 261, (4S)-2′-(((1R)-2,2-difluorocyclopropyl)methoxy)-4′-fluoro-7′-(6-fluoro-3-pyridinyl)spiro[1,3-oxazole-4,9′-xanthen]-2-amine] |
| 0.0023 | 0.0133 | CC(C)(C#N)COc1cc(F)c2c(c1)[C@]1(COC(N)=N1)c1cc(-c3ccc(F)nc3)ccc1O2 [Example 263, 3-(((4S)-2-amino-4′-fluoro-7′-(6-fluoro-3-pyridinyl)spiro[1,3-oxazole-4,9′-xanthen]-2′-yl)oxy)-2,2-dimethylpropanenitrile] |
| 0.001 | 0.0081 | COc1cncc(-c2ccc3c(c2)[C@@]2(COC(N)=N2)c2cc(OCC(C)(C)C#N)cc(F)c2O3)c1 [Example 264, 3-(((4S)-2-amino-4′-fluoro-7′-(5-methoxy-3-pyridinyl)spiro[1,3-oxazole-4,9′-xanthen]-2′-yl)oxy)-2,2-dimethylpropanenitrile] |
| 0.0008 | 0.0047 | CC(C)(C#N)COc1cc(F)c2c(c1)[C@]1(COC(N)=N1)c1cc(-c3cncc(C#N)c3)ccc1O2 [Example 265, 5-((4S)-2-amino-7′-(2-cyano-2-methylpropoxy)-5′-fluorospiro[1,3-oxazole-4,9′-xanthen]-2′-yl)-3-pyridinecarbonitrile] |
| 0.0022 | 0.0068 | CC1(COc2cc(F)c3c(c2)[C@]2(COC(N)=N2)c2cc(-c4ccc(F)nc4)ccc2O3)COC1 [Example 266, (4S)-4′-fluoro-7′-(6-fluoro-3-pyridinyl)-2′-((3-methyl-3-oxetanyl)methoxy)spiro[1,3-oxazole-4,9′-xanthen]-2-amine] |
| 0.0031 | 0.012 | CC1(COc2cc(F)c3c(c2)[C@]2(COC(N)=N2)c2cc(-c4cnccn4)ccc2O3)COC1 [Example 267, (4S)-4′-fluoro-2′-((3-methyl-3-oxetanyl)methoxy)-7′-(2-pyrazinyl)spiro[1,3-oxazole-4,9′-xanthen]-2-amine] |
| 0.0105 | 0.0261 | NC1=N[C@@]2(CO1)c1cc(-c3cnccn3)ccc1Oc1c(F)cc(N3C[C@@H]4C[C@H]3CO4)cc12 [Example 268, (4S)-4′-fluoro-2′-((1S,4S)-2-oxa-5-azabicyclo[2.2.1]hept-5-yl)-7′-(2-pyrazinyl)spiro[1,3-oxazole-4,9′-xanthen]-2-amine] |
| 0.0052 | 0.0188 | NC1=N[C@@]2(CO1)c1cc(-c3cnccn3)ccc1Oc1c(F)cc(N3CCOCC3)cc12 [Example 269, (4S)-4′-fluoro-2′-(4-morpholinyl)-7′-(2-pyrazinyl)spiro[1,3-oxazole-4,9′-xanthen]-2-amine] |
| 0.0054 | 0.0336 | NC1=N[C@@]2(CO1)c1cc(-c3cnccn3)ccc1Oc1c(F)cc(OCC3CCOCC3)cc12 [Example 270, (4S)-4′-fluoro-7′-(2-pyrazinyl)-2′-(tetrahydro-2H-pyran-4-ylmethoxy)spiro[1,3-oxazole-4,9′-xanthen]-2-amine] |
| 0.0005 | 0.0041 | NC1=N[C@@]2(CO1)c1cc(-c3cccnc3F)ccc1Oc1c(F)cc(N3CCC(F)(F)C3)cc12 [Example 271, (4S)-2′-(3,3-difluoro-1-pyrrolidinyl)-4′-fluoro-7′-(2-fluoro-3-pyridinyl)spiro[1,3-oxazole-4,9′-xanthen]-2-amine] |
